Results taken from paper PMC12396409, “Screening and hit evaluation of a microbial metabolite library against the pathogenic Plasmodium falciparum and Toxoplasma gondii parasites” (International Journal for Parasitology: Drugs and Drug …, 2025).
Like-named read-outs stand apart in the source and are kept apart here. *1 amine or outer side, *2 acyl side, *3 side chain or, on linkers, in order; H or OH if unused. Where a SMILES comes first, the peptide text is derived from it. Bridges are numbered along the chain shown (N, C = ends). [ ]: non-standard residue; d: D form. The star is where a group is joined. Orn(4R-OH,5R-OH) = O=C([C@H](C[C@@H](O)[C@@H](O)N[*:3])N[*:1])[*:2]; Tetradecanoyl(10R,12S-Me2) = CC[C@H](C)C[C@H](C)CCCCCCCCC(=O)*; hTyr(3S-OH,4S-OH) = N[C@H](C(=O)O)[C@H](O)[C@@H](O)c1ccc(O)cc1; Gln(3R-OH) = NC(=O)C[C@@H](O)[C@H](N)C(=O)O; Pro(3S-OH) = O=C(O)[C@H]1NCC[C@@H]1O; Hyp = O=C(O)[C@@H]1C[C@@H](O)CN1; Hiv = CC(C)[C@H](O)C(=O)O

What was measured:
[1] = tested on: P. falciparum 3D7 parasites; assay: P. falciparum growth inhibition assay, 2-cycle (120 h treatment), delayed-death screen and dose-response; format: cell-based, Plasmodium falciparum; conditions: for activity at 2 µg/mL: Plasmodium falciparum, 3D7
[2] = tested on: T. gondii RH strain (RH-Tub-eYFP) tachyzoites; assay: microbe, parasite or virus in culture; format: cell-based, Toxoplasma gondii; conditions: 72 h; for percent parasite growth at 2 µg/mL: Toxoplasma gondii
[3] = tested on: P. falciparum 3D7 parasites; assay: P. falciparum growth inhibition assay, 1-cycle (72 h treatment), SYBR DNA staining (library screen at 2 μg/mL and dose-response); format: cell-based, Plasmodium falciparum; conditions: for activity at 2 µg/mL: Plasmodium falciparum, 3D7
[4] = library screen at 2 μg/mL, 120 h, % growth, replicate 1
[5] = library screen at 2 μg/mL, 120 h, % growth, replicate 2
[6] = library screen at 2 μg/mL, % growth, replicate 1
[7] = library screen at 2 μg/mL, % growth, replicate 2
[8] = library screen at 2 μg/mL, 72 h, % growth, replicate 1
[9] = library screen at 2 μg/mL, 72 h, % growth, replicate 2
[10] = P. falciparum, 120 h, screen at 2 μg/mL, replicate 1
[11] = P. falciparum, 120 h, screen at 2 μg/mL, replicate 2
[12] = T. gondii, screen at 2 μg/mL, replicate 1
[13] = T. gondii, screen at 2 μg/mL, replicate 2
[14] = P. falciparum, 72 h, screen at 2 μg/mL, replicate 1
[15] = P. falciparum, 72 h, screen at 2 μg/mL, replicate 2
[16] = P. falciparum, 120 h, parasite screen 2 μg/mL, % growth, replicate 1
[17] = P. falciparum, 120 h, parasite screen 2 μg/mL, % growth, replicate 2
[18] = T. gondii, parasite screen 2 μg/mL, % growth, replicate 1
[19] = T. gondii, parasite screen 2 μg/mL, % growth, replicate 2
[20] = P. falciparum, 72 h, parasite screen 2 μg/mL, % growth, replicate 1
[21] = P. falciparum, 72 h, parasite screen 2 μg/mL, % growth, replicate 2

## C[C@H]1OC(=O)C=C[C@@H](O)[C@@H](O)CCCCCCCC[C@@H]1O [Berkeleylactone F]
[1]; [4]
  Pf_120h_%Growth_Rep1: 146.18%
[1]; [5]
  Pf_120h_%Growth_Rep2: 96.20%
[2]; [6]
  Tg_72h_%Growth_Rep1: 83.11%
[2]; [7]
  Tg_72h_%Growth_Rep2: 88.17%
[3]; [8]
  Pf_72h_%Growth_Rep1: 78.45%
[3]; [9]
  Pf_72h_%Growth_Rep2: 83.14%

## Dihydrocyclosporin A
[1]; [4]
  Pf_120h_%Growth_Rep1: 3.25%
[1]; [5]
  Pf_120h_%Growth_Rep2: 2.98%
[2]; [6]
  Tg_72h_%Growth_Rep1: 8.15%
[2]; [7]
  Tg_72h_%Growth_Rep2: 8.03%
[3]; [8]
  Pf_72h_%Growth_Rep1: 1.22%
[3]; [9]
  Pf_72h_%Growth_Rep2: -3.30%

## CC[C@H]1C[C@@H]2CC[C@@H](O2)[C@@H](C)C(=O)O[C@H](CC)C[C@H]2CC[C@H](O2)[C@H](C)C(=O)O[C@@H](CC)C[C@@H]2CC[C@@H](O2)[C@@H](C)C(=O)O[C@H](CC)C[C@H]2CC[C@H](O2)[C@H](C)C(=O)O1 [Tetranactin]
[1]; [10]
  Pf_120h_%Growth_Rep1: 29.81%
[1]; [11]
  Pf_120h_%Growth_Rep2: 14.39%
[2]; [12]
  Tg_72h_%Growth_Rep1: 5.41%
[2]; [13]
  Tg_72h_%Growth_Rep2: 2.84%
[3]; [14]
  Pf_72h_%Growth_Rep1: 6.09%
[3]; [15]
  Pf_72h_%Growth_Rep2: -9.23%

## CCCCCC(=O)NC1CCOC1=O (stereo not drawn) [BIA-H1495]
[1]; P. falciparum 3D7, 120 h, library screen at 2 μg/mL, % growth, replicate 1
  Pf_120h_%Growth_Rep1: 97.98%
[1]; P. falciparum 3D7, 120 h, library screen at 2 μg/mL, % growth, replicate 2
  Pf_120h_%Growth_Rep2: 95.38%
[2]; T. gondii RH, library screen at 2 μg/mL, % growth, replicate 1
  Tg_72h_%Growth_Rep1: 133.00%
[2]; T. gondii RH, library screen at 2 μg/mL, % growth, replicate 2
  Tg_72h_%Growth_Rep2: 97.80%
[3]; P. falciparum 3D7, 72 h, library screen at 2 μg/mL, % growth, replicate 1
  Pf_72h_%Growth_Rep1: 85.11%
[3]; P. falciparum 3D7, 72 h, library screen at 2 μg/mL, % growth, replicate 2
  Pf_72h_%Growth_Rep2: 87.66%

## CC(C)C[C@@H]1NC(=O)[C@H](C(C)C)NC(=O)[C@H](C(C)C)OC(=O)[C@@H](CC(C)C)NC(=O)[C@@H](C(C)C)NC(=O)[C@H](C(C)C)OC1=O [Sporidesmolide III] (cyclo([Hiv]VL[Hiv][dV][dL]))
[1]; [16]
  Pf_120h_%Growth_Rep1: 153.85%
[1]; [17]
  Pf_120h_%Growth_Rep2: 76.17%
[2]; [18]
  Tg_72h_%Growth_Rep1: 94.68%
[2]; [19]
  Tg_72h_%Growth_Rep2: 93.28%
[3]; [20]
  Pf_72h_%Growth_Rep1: 74.67%
[3]; [21]
  Pf_72h_%Growth_Rep2: 81.35%

## C[C@@H]1CCC[C@@H](O)CCC/C=C/c2cc(O)cc(O)c2C(=O)O1 [Zearalenol, alpha-]
[1]; [10]
  Pf_120h_%Growth_Rep1: 153.36%
[1]; [11]
  Pf_120h_%Growth_Rep2: 83.41%
[2]; [12]
  Tg_72h_%Growth_Rep1: 85.29%
[2]; [13]
  Tg_72h_%Growth_Rep2: 104.82%
[3]; [14]
  Pf_72h_%Growth_Rep1: 64.20%
[3]; [15]
  Pf_72h_%Growth_Rep2: 80.17%

## C=CC(C)(C)c1[nH]c2c(CC=C(C)C)cc(CC=C(C)C)cc2c1C[C@@H]1NC(=O)[C@H](C)NC1=O [Echinulin]
[1]; library screen at 2 μg/mL, 120 h, % growth, replicate 1, read-out: Pf_120h_%Growth_Rep1
  activity at 2 µg/mL: 22.8%
[1]; library screen at 2 μg/mL, 120 h, % growth, replicate 2, read-out: Pf_120h_%Growth_Rep2
  activity at 2 µg/mL: 39.3%
[2]; library screen at 2 μg/mL, % growth, replicate 1, read-out: Tg_72h_%Growth_Rep1
  percent parasite growth at 2 µg/mL: 133%
[2]; library screen at 2 μg/mL, % growth, replicate 2, read-out: Tg_72h_%Growth_Rep2
  percent parasite growth at 2 µg/mL: 104%
[3]; library screen at 2 μg/mL, 72 h, % growth, replicate 1, read-out: Pf_72h_%Growth_Rep1
  activity at 2 µg/mL: 25.2%
[3]; library screen at 2 μg/mL, 72 h, % growth, replicate 2, read-out: Pf_72h_%Growth_Rep2
  activity at 2 µg/mL: 35.1%

## CC[C@H](C)C[C@H](C)CCCCCCCCC(=O)N[C@H]1C[C@@H](O)[C@@H](O)NC(=O)[C@@H]2[C@@H](O)CCN2C(=O)[C@H]([C@H](O)CC(N)=O)NC(=O)[C@H]([C@H](O)[C@@H](O)c2ccc(O)cc2)NC(=O)[C@@H]2C[C@@H](O)CN2C(=O)[C@H]([C@@H](C)O)NC1=O [Pneumocandin B0] ({Tetradecanoyl(10R,12S-Me2)}-[Orn(4R-OH,5R-OH)]T[Hyp][hTyr(3S-OH,4S-OH)][Gln(3R-OH)][Pro(3S-OH)]; lactam 1-C)
[1]; [16]
  Pf_120h_%Growth_Rep1: 81.62%
[1]; [17]
  Pf_120h_%Growth_Rep2: 136.49%
[2]; [18]
  Tg_72h_%Growth_Rep1: 104.00%
[2]; [19]
  Tg_72h_%Growth_Rep2: 85.61%
[3]; [20]
  Pf_72h_%Growth_Rep1: 84.80%
[3]; [21]
  Pf_72h_%Growth_Rep2: 90.52%

## CCC(=O)N[C@H](CO)[C@H](O)c1ccc([N+](=O)[O-])cc1 [Corynecin II]
[1]; [10]
  Pf_120h_%Growth_Rep1: 83.93%
[1]; [11]
  Pf_120h_%Growth_Rep2: 86.26%
[2]; [12]
  Tg_72h_%Growth_Rep1: 140.85%
[2]; [13]
  Tg_72h_%Growth_Rep2: 90.01%
[3]; [14]
  Pf_72h_%Growth_Rep1: 84.27%
[3]; [15]
  Pf_72h_%Growth_Rep2: 79.27%

## COc1cc(O)c2c(c1)/C=C/C[C@H](O)[C@H](O)C(=O)/C=C/C[C@H](C)OC2=O [BIA-O1897]
[1]; P. falciparum 3D7, 120 h, parasite screen at 2 μg/mL, % growth, replicate 1
  Pf_120h_%Growth_Rep1: 71.81%
[1]; P. falciparum 3D7, 120 h, parasite screen at 2 μg/mL, % growth, replicate 2
  Pf_120h_%Growth_Rep2: 72.01%
[2]; T. gondii, parasite screen at 2 μg/mL, % growth, replicate 1
  Tg_72h_%Growth_Rep1: 58.83%
[2]; T. gondii, parasite screen at 2 μg/mL, % growth, replicate 2
  Tg_72h_%Growth_Rep2: 79.20%
[3]; P. falciparum 3D7, 72 h, parasite screen at 2 μg/mL, % growth, replicate 1
  Pf_72h_%Growth_Rep1: 68.65%
[3]; P. falciparum 3D7, 72 h, parasite screen at 2 μg/mL, % growth, replicate 2
  Pf_72h_%Growth_Rep2: 68.31%
